From patent US20100041597A1, “PEPTIDES TARGETED TO PROTEIN KINASE C ISOFORMS AND USES THEREOF” (priority 2005, published 2010)
Read-outs that look alike come from different tables or passages of the source. Values belong to the substance of their own block, whether it stands above or below them.

Experiments:
[1] = tested on: PKC-β; assay: In vitro competition with anti-PKC-β antibody, Protocol A, IMR-32 cells; assay type: binding, human; details: for Band Intensity / Inhibition (%) / Relative Intensity (%): PKC-β, IMR-32, Table 6
Procedure: Cell lysates from either IMR-32 (human neuroblastoma) cells or C6Cx43 cells (rat glioma transfected cells overexpressing connexin 43) were obtained using standard protocols and the proteins of the lysate were separated by SDS PAGE electrophoresis and electrotransferred onto a nitrocellulose membrane. The membrane was incubated for 30 minutes in blocking buffer (TBST) containing the test peptide at either 5× or 20× the concentrations of the primary antibody. A primary polyclonal antibody specific for PKC-α (Santa Cruz Biotechnology, Inc., CA) was then added (15 μg/ml) and the membrane incubated for a further 45 minutes. Finally, the primary antibody was detected with a secondary antibody conjugated to alkaline phosphatase using standard procedures. The intensity of the band corresponding to PKC-α was assessed by scanning and densitometry using the Gel-Pro software (Media Cybernetics) to obtain relative band intensities (average of 3 replicas). Control assays were conducted as described above except that blocking buffer without peptide was used.
Peptides PRE 1, PRE 2 and PRE 3 (see Table 3) were tested for their ability to interfere with the binding of a PKC-β-specific polyclonal antibody (Santa Cruz Biotechnology, Inc.) to PKC-β using the general protocol described in Example 1. […] It is worth noting in this regard that PKC-α and PKC-β belong to the same sub-group of PKCs (cPKCs).

[2] = tested on: PKC-ε; assay: In vitro competition with anti-PKC-ε antibody, Protocol B, IMR-32 cells; assay type: binding, human
Procedure: The ability of the peptides PRE 2 and PRE 3 (see Table 3) to interfere with the binding of a PKC-α-specific polyclonal antibody (Santa Cruz Biotechnology, Inc.) to PKC-α was determined using a modified version of the protocol outlined above in which the test peptide was added directly to the cell extract prior to electrophoresis at a concentration of either 5× or 15× the concentration of the protein applied to each well of the gel for the Western blots (20 μg).
Peptides PRE 2, PRE 3 and PRE 4 (see Table 3) were tested for their ability to interfere with the binding of isoform-specific polyclonal antibodies (Santa Cruz Biotechnology, Inc.) to PKC-ε using the general protocol described in Example 3. Two bands, representing alternate splicing variants of PKC-ε, were identified on the Western blot using this anti-PKC-ε antibody.

[3] = biological target: T1, PKC-α (Homo sapiens, UniProt P17252); assay: Kinase-Glo Luminescent Kinase Assay, substrate myelin basic protein; assay type: biochemical; details: for inhibition at 150 µM: PRE 4 150 μM; for inhibition at 300 µM: PRE 4 300 μM; for inhibition at 600 µM: PRE 4 600 μM
Procedure: The ability of peptide PRE 4 (see Table 3) to inhibit the activity of PKC-α was tested using increasing concentrations of PRE 4 and the Kinase-Glo™ Luminescent Kinase Assay (Promega, Cat # V6712/3/4) following the manufacturer's instructions. Briefly, the assay is based on the Luciferase luminescent reaction with ATP. The substrate was myelin basic protein (MBP, a classical substrate of the PKC family). ATP was added to the PKC-α reaction solution at a given concentration and the remaining ATP was measured by luminescence. Luminescence of blank solutions, ATP provided at the beginning of the reaction and PKC-α activity in the presence or absence of PRE 4 were measured.
Blanks are subtracted from all values.
ATP remaining in all reactions was subtracted from the ATP values at the start=relative enzyme activity (Ea).
The relative activities were all measured and the Ea in the presence of PRE 4 are reported relative to the Ea of PKC-α alone taken as 100. The difference between 100 and the % Ea of PKC-α exposed to PRE 4 represents the relative level of inhibition.

[4] = biological target: T1, PKC-α; assay: In vitro competition with anti-PKC-α antibody, Protocol B (peptide added to cell extract before electrophoresis), IMR-32 cells; assay type: binding; parameters: subcellular localisation of endogenous PKC-α in IMR-32 cells; endogenous in cells; host or cells: IMR-32; details: for inhibition at 0.1 mg / remaining activity at 0.1 mg / Band Intensity / inhibition at 0.2 mg / remaining activity at 0.2 mg / inhibition at 0.3 mg / remaining activity at 0.3 mg / Inhibition (%) / Relative Intensity (%): PKC-α
Procedure: Peptides PRE 3 and PRE 4 (see Table 3) were tested for their ability to interfere with the binding of isoform-specific polyclonal antibodies (Santa Cruz Biotechnology, Inc.) to PKC-α, PKC-βI or PKC-βII using the general protocol described in Example 3.

[5] = 100 μg, control band intensity 302.5, Table 9
[6] = 200 μg, control band intensity 302.5, Table 9
[7] = 300 μg, control band intensity 302.5, Table 9

Substance: RRKKGGKDFVVKR [PRE 1]
effect on antibody binding to PKC-β [1]: some cross reactivity
Band Intensity ([1]; 75 μg): 0.825
Inhibition (%) ([1]; 75 μg): 28.9%
Relative Intensity (%) ([1]; 75 μg): 71.1%
Band Intensity ([1]; 300 μg): 0.528
Inhibition (%) ([1]; 300 μg): 54.5%
Relative Intensity (%) ([1]; 300 μg): 45.5%

inhibition at 150 µM ([3]; Experiment 1): 6.15%
inhibition at 150 µM ([3]; Experiment 2): 28.9%
inhibition at 150 µM ([3]; Experiment 3): 40.1%
inhibition at 300 µM ([3]; Experiment 1): 9.76%
inhibition at 300 µM ([3]; Experiment 2): 40.7%
inhibition at 300 µM ([3]; Experiment 3): 35.5%
inhibition at 600 µM ([3]; Experiment 1): 16.4%
inhibition at 600 µM ([3]; Experiment 2): 53.5%
inhibition at 600 µM ([3]; Experiment 3): 41.6%
inhibition at 0.1 mg ([4]; 100 μg, Table 9): 89.4%
remaining activity at 0.1 mg ([4]; 100 μg, Table 9, read-out: Relative Intensity (%)): 10.6%
Band Intensity [4, 5]: 32.2
inhibition at 0.2 mg ([4]; 200 μg, Table 9): 99.5%
remaining activity at 0.2 mg ([4]; 200 μg, Table 9, read-out: Relative Intensity (%)): 0.5%
Band Intensity [4, 6]: 1.5
inhibition at 0.3 mg ([4]; 300 μg, Table 9): 100%
remaining activity at 0.3 mg ([4]; 300 μg, Table 9, read-out: Relative Intensity (%)): 0%
Band Intensity [4, 7]: 0.0
Substance: Ac-KDAQNLIGISI-NH2 [PRE 4, Ac-KDAQNLIGISI-NH2]
effect on antibody binding to PKC-ε [2]: some cross-reactivity with PKC-ε
Band Intensity ([2]; 20 μg, PKC-ε Band 1, Table 10): 184.38
Inhibition (%) ([2]; 20 μg, PKC-ε Band 1, Table 10): 42.9%
Relative Intensity (%) ([2]; 20 μg, PKC-ε Band 1, Table 10): 57.1%
Band Intensity ([2]; 20 μg, PKC-ε Band 2, Table 10): 152.66
Inhibition (%) ([2]; 20 μg, PKC-ε Band 2, Table 10): 46.6%
Relative Intensity (%) ([2]; 20 μg, PKC-ε Band 2, Table 10): 53.33%
Band Intensity ([2]; 50 μg, PKC-ε Band 1, Table 10): 0.0
Inhibition (%) ([2]; 50 μg, PKC-ε Band 1, Table 10): 100.0%
Relative Intensity (%) ([2]; 50 μg, PKC-ε Band 1, Table 10): 0.0%
Band Intensity ([2]; 50 μg, PKC-ε Band 2, Table 10): 0.0
Inhibition (%) ([2]; 50 μg, PKC-ε Band 2, Table 10): 100.0%
Relative Intensity (%) ([2]; 50 μg, PKC-ε Band 2, Table 10): 0.0%
Band Intensity ([2]; 100 μg, PKC-ε Band 1, Table 10): 0.0
Inhibition (%) ([2]; 100 μg, PKC-ε Band 1, Table 10): 100.0%
Relative Intensity (%) ([2]; 100 μg, PKC-ε Band 1, Table 10): 0.0%
Band Intensity ([2]; 100 μg, PKC-ε Band 2, Table 10): 0.0
Inhibition (%) ([2]; 100 μg, PKC-ε Band 2, Table 10): 100.0%
Relative Intensity (%) ([2]; 100 μg, PKC-ε Band 2, Table 10): 0.0%

Band Intensity ([4]; 100 μg, IMR-32, Table 7): 0.0
inhibition at 0.1 mg ([4]; 100 μg, IMR-32, Table 7): 100%
remaining activity at 0.1 mg ([4]; 100 μg, IMR-32, Table 7, read-out: Relative Intensity (%)): 0%
Inhibition (%) ([4]; 100 μg, Table 9): 100.0%
Relative Intensity (%) ([4]; 100 μg, Table 9): 0.0%
Band Intensity [4, 5]: 0.0
Band Intensity ([4]; 200 μg, IMR-32, Table 7): 0.0
inhibition at 0.2 mg ([4]; 200 μg, IMR-32, Table 7): 100%
remaining activity at 0.2 mg ([4]; 200 μg, IMR-32, Table 7, read-out: Relative Intensity (%)): 0%
Inhibition (%) ([4]; 200 μg, Table 9): 100.0%
Relative Intensity (%) ([4]; 200 μg, Table 9): 0.0%
Band Intensity [4, 6]: 0.0
Band Intensity ([4]; 300 μg, IMR-32, Table 7): 0.0
inhibition at 0.3 mg ([4]; 300 μg, IMR-32, Table 7): 100%
remaining activity at 0.3 mg ([4]; 300 μg, IMR-32, Table 7, read-out: Relative Intensity (%)): 0%
Inhibition (%) ([4]; 300 μg, Table 9): 100.0%
Relative Intensity (%) ([4]; 300 μg, Table 9): 0.0%
Band Intensity [4, 7]: 0.0
Substance: Ac-AKGIQEVKGGDAQNLIGISI-NH2 [PRE 3]
Band Intensity ([2]; 20 μg, PKC-ε Band 1, Table 10): 5.12
Inhibition (%) ([2]; 20 μg, PKC-ε Band 1, Table 10): 99.0%
Relative Intensity (%) ([2]; 20 μg, PKC-ε Band 1, Table 10): 0.12%
Band Intensity ([2]; 20 μg, PKC-ε Band 2, Table 10): 0.0
Inhibition (%) ([2]; 20 μg, PKC-ε Band 2, Table 10): 100.0%
Relative Intensity (%) ([2]; 20 μg, PKC-ε Band 2, Table 10): 0.0%
Band Intensity ([2]; 50 μg, PKC-ε Band 1, Table 10): 0.0
Inhibition (%) ([2]; 50 μg, PKC-ε Band 1, Table 10): 100.0%
Relative Intensity (%) ([2]; 50 μg, PKC-ε Band 1, Table 10): 0.0%
Band Intensity ([2]; 50 μg, PKC-ε Band 2, Table 10): 0.0
Inhibition (%) ([2]; 50 μg, PKC-ε Band 2, Table 10): 100.0%
Relative Intensity (%) ([2]; 50 μg, PKC-ε Band 2, Table 10): 0.0%
Band Intensity ([2]; 100 μg, PKC-ε Band 1, Table 10): 0.0
Inhibition (%) ([2]; 100 μg, PKC-ε Band 1, Table 10): 100.0%
Relative Intensity (%) ([2]; 100 μg, PKC-ε Band 1, Table 10): 0.0%
Band Intensity ([2]; 100 μg, PKC-ε Band 2, Table 10): 0.0
Inhibition (%) ([2]; 100 μg, PKC-ε Band 2, Table 10): 100.0%
Relative Intensity (%) ([2]; 100 μg, PKC-ε Band 2, Table 10): 0.0%
effect on antibody binding to PKC-β [1]: did not show an effect on antibody binding to PKC-β
Band Intensity ([1]; 75 μg): 1.900
Inhibition (%) ([1]; 75 μg): 0.0%
Relative Intensity (%) ([1]; 75 μg): 102.4%
Band Intensity ([1]; 300 μg): 1.900
Inhibition (%) ([1]; 300 μg): 0.0%
Relative Intensity (%) ([1]; 300 μg): 102.4%
Band Intensity ([1]; 600 μg): 1.847
Inhibition (%) ([1]; 600 μg): 0.0%
Relative Intensity (%) ([1]; 600 μg): 99.6%
effect on antibody binding to PKC-α [4]: effectively interfered with PKC-α antibody binding to PKC-α
